Data: patent publication US7928060B2, “Amylin family polypeptide-6 (AFP-6) analogs and methods of making and using them” (Amylin Pharmaceuticals, Inc., priority 2004, dated 2011)
Bridge positions count the residues as written; N and C are the ends. Ends that are not written are not given here. Peptide text beside a SMILES is read from it.

Tests used:
adrenomedullin receptor = adrenomedullin receptor (Homo sapiens, UniProt O60895+Q16602); assay: adrenomedullin (ADM) receptor binding assay; settings: Table 6
Sequence of adrenomedullin receptor (Q16602 23-461): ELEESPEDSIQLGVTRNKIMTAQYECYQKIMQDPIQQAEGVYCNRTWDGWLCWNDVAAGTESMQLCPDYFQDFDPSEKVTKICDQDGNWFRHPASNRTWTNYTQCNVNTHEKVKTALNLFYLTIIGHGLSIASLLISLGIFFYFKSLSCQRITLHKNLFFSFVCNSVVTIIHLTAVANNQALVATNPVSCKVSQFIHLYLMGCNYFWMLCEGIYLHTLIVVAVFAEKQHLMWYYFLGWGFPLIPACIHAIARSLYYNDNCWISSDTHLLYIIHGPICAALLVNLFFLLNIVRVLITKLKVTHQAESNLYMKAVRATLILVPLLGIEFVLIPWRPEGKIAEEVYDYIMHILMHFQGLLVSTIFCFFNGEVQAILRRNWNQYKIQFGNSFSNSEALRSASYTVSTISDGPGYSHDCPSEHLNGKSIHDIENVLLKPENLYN
Sequence of adrenomedullin receptor (O60895 43-175): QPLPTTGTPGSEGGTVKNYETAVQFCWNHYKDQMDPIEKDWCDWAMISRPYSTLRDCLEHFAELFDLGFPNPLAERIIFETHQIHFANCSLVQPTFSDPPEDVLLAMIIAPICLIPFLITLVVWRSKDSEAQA

CGRP receptors = molecular target: T1, CGRP receptors (Homo sapiens, UniProt O60894+Q16602); assay: CGRP radioligand binding assay (125I-hCGRP, SK-N-MC cell membranes); settings: Table 6
T1 construct: membranes prepared from SK-N-MC cells, known to express CGRP receptors; endogenous in cells; host or cells: SK-N-MC cell membranes
T1 sequence (Q16602 23-461): as the sequence (Q16602 23-461) above
T1 sequence (O60894 27-148): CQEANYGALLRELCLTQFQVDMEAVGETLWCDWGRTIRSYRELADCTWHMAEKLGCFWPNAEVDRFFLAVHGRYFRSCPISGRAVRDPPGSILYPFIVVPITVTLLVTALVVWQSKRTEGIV

amylin receptors = molecular target: T2, amylin receptors (Rattus norvegicus, UniProt P32214); assay: amylin radioligand binding assay (125I-rat amylin, nucleus accumbens membranes); settings: Table 6; read-out: Amylin receptor binding
T2 construct: This basal forebrain tissue, containing the nucleus accumbens and surrounding regions, was weighed and homogenized; from tissue; host or cells: rat basal forebrain (nucleus accumbens) membranes, male Sprague-Dawley rats
T2 sequence (P32214 25-516): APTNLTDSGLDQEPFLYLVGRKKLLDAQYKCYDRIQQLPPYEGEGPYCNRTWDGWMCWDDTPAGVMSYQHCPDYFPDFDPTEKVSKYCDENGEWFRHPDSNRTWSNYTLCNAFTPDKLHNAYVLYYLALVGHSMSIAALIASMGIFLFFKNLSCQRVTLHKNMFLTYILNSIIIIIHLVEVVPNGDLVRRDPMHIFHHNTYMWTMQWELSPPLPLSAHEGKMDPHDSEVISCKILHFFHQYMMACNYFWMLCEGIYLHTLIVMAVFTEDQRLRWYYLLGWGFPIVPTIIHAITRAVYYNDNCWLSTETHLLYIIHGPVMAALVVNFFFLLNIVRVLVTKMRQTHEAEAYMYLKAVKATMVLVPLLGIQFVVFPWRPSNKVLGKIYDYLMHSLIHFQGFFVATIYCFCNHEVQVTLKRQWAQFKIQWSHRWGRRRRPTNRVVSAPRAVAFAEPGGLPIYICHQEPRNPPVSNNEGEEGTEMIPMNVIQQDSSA
Protocol: Unlabeled peptides were obtained from BACHEM Inc. (Torrance, Calif.).
Male Sprague-Dawley® rats (200-250) grams were sacrificed by decapitation. Brains were removed and place in cold phosphate-buffered saline (PBS). From the ventral surface, cuts were made rostral to the hypothalamus, bounded laterally by the olfactory tracts and extending at a 45° angle medially from these tracts. […] Membranes were washed three times in fresh buffer by centrifugation for 15 minutes at 48,000×g. The final membrane pellet was resuspended in 20 mM HEPES buffer containing 0.2 mM phenylmethylsulfonyl fluoride (PMSF).
Solutions were incubated for 60 minutes at 2 C. […] Filters were washed immediately before filtration with 5 ml cold PBS, and immediately after filtration with 15 ml cold PBS. […] Competition curves were generated by measuring binding in the presence of 10^−12 to 10^−6 M unlabeled test compound and were analyzed by nonlinear regression using a 4-parameter logistic equation (INPLOT program; […] Software, San Diego, Calif.).

calcitonin receptor = molecular target: T3, calcitonin receptor (Rattus norvegicus, UniProt P32214); assay: calcitonin receptor binding assay (rCalcitonin RBA); settings: Table 6; read-out: CT receptor binding
T3 sequence (P32214 25-516): T2 sequence (P32214 25-516)

IC50 (adrenomedullin receptor) [nM]	IC50 (CGRP receptors) [nM]	IC50 (amylin receptors) [nM]	IC50 (calcitonin receptor) [nM]	Compound
≥ 1000	18	12	51	CC(C)C[C@H](NC(=O)[C@H](CCC(N)=O)NC(=O)[C@H](Cc1c[nH]c2ccccc12)NC(=O)[C@H](CC(C)C)NC(=O)[C@H](CCCNC(=N)N)NC(=O)[C@H](Cc1c[nH]cn1)NC(=O)[C@H](CO)NC(=O)[C@H](CC(C)C)NC(=O)[C@H](CC(N)=O)NC(=O)[C@H](CCC(N)=O)NC(=O)[C@@H](NC(=O)[C@H](CCC(N)=O)NC(=O)[C@@H]1CSSC[C@H](NC(=O)CN)C(=O)N[C@@H](CC(N)=O)C(=O)N[C@@H]([C@@H](C)O)C(=O)N[C@@H](C)C(=O)N[C@@H]([C@@H](C)O)C(=O)N1)C(C)C)C(=O)N[C@@H](CCCNC(=N)N)C(=O)N[C@@H](CCC(N)=O)C(=O)N[C@@H](CC(=O)O)C(=O)N[C@@H](CO)C(=O)N[C@@H](C)C(=O)N1CCC[C@H]1C(=O)N[C@H](C(=O)N[C@@H](CC(=O)O)C(=O)N1CCC[C@H]1C(=O)N[C@@H](CO)C(=O)N[C@@H](CO)C(=O)N1CCC[C@H]1C(=O)N[C@@H](Cc1c[nH]cn1)C(=O)N[C@@H](CO)C(=O)N[C@@H](Cc1ccc(O)cc1)C(N)=O)C(C)C [compound 31] (H-GCNTATCQVQNLSHRLWQLRQDSAPVDPSSPHSY-NH2; disulfide 2-7 (inferred); N-terminus assumed)
≥ 1000	> 1000	> 1000	> 1000	CC(C)C[C@H](NC(=O)[C@H](CCC(N)=O)NC(=O)[C@H](Cc1c[nH]c2ccccc12)NC(=O)[C@H](CC(C)C)NC(=O)[C@H](CCCNC(=N)N)NC(=O)[C@H](Cc1c[nH]cn1)NC(=O)[C@H](CO)NC(=O)[C@H](CC(C)C)NC(=O)[C@H](CC(N)=O)NC(=O)[C@H](CCC(N)=O)NC(=O)[C@@H](NC(=O)[C@H](CCC(N)=O)NC(=O)[C@@H]1CSSC[C@H](NC(=O)CN)C(=O)N[C@@H](C(C)C)C(=O)N[C@@H](CC(C)C)C(=O)NCC(=O)N[C@@H]([C@@H](C)O)C(=O)N1)C(C)C)C(=O)N[C@@H](CCCNC(=N)N)C(=O)N[C@@H](CCC(N)=O)C(=O)N[C@@H](CCC(=O)O)C(=O)N[C@@H](CO)C(=O)N[C@@H](C)C(=O)N1CCC[C@H]1C(=O)N[C@H](C(=O)N[C@@H](CCC(=O)O)C(=O)N1CCC[C@H]1C(=O)N[C@@H](CO)C(=O)N[C@@H](CO)C(=O)N1CCC[C@H]1C(=O)N[C@@H](Cc1c[nH]cn1)C(=O)N[C@@H](CO)C(=O)N[C@@H](Cc1ccc(O)cc1)C(N)=O)C(C)C [compound 40] (H-GCVLGTCQVQNLSHRLWQLRQESAPVEPSSPHSY-NH2; disulfide 2-7)
19	35	2.4	7.3	H-RVGCGNLSTCQVQNLSHRLWQLMGPAGRQDSAPVDPSSPHSY-NH2 (disulfide 4-10 (inferred)) [compound 22]
≥ 1000	> 1000	> 1000	> 1000	H-VGMVLGTMQVQNLSHRLWQLRQDSAPVDPSSPHSY-NH2 [compound 27]
59	> 1000	> 1000	> 1000	VQNLSHRLWQLMGPAGRQDSAPVDPSSPHSY-NH2 [compound 14]
